Read-outs that look alike come from different tables or passages of the source. Marks after values point to notes of the source that are not given here.
Assays:
[1] = tested on: alpha2-adrenergic receptors; settings: alpha2 vs alpha1; cited from earlier work
[2] = conditions not specified, cited from earlier work
[3] = for saturation in the aqueous solvent phase of the primary formulation: prior to application
Experimental: (§1) […] were prepared by adding an excess of drug substance to various solvents and storing the samples in sealed containers for 24 hours at room temperature with continuous stirring.
(§2) The majority of samples were stirred by a magnetic stirrer; however, in the case of viscous samples (e.g for pure glycerine), samples were stirred using a rotary mixer. The speed of the rotary mixer was adjusted to ensure proper mixing of the sample and this generally involved slower rotation speeds.
(§3) The chromatographic conditions are described below:• Column: Sunfire C18 150 mm×4.6 mm, 3.5 μm • Column temperature: 40° C. • Injection volume: […] • Flow rate: 0.8m1/minute • UV Detection: 246 nm
Saturated solutions were prepared, incubated and measured as described in Example 1.

[4] = Experimental: as §1, §2, §3

## Brc1c(NC2=NCCN2)ccc2nccnc12 [Brimonidine]
[1]
  selectivity for alpha2-adrenergic receptors over alpha1-adrenergic receptors: 1,000 times

## brimonidine tartrate
[2]; in Propylene glycol, literature value (Product Monograph ALPHAGAN)
  Max Solubility % (w/w): ~0.1**** % (w/w)
[2]; in WATER, literature value
  Max Solubility % (w/w): 3.4*** % (w/w)
[3]; PG/PEG-400/GLY/PVP (20:10:5:1) vs PG/PEG400/GLY/PVP/water (20:10:5:1:40)
  active agent solubilised by the non-volatile mixture compared to the aqueous mixture: approximately 22%
[3]; concentration of 1% brimonidine tartrate
  saturation in the aqueous solvent phase of the primary formulation: around 30%
[3]; concentration of 1.5% brimonidine tartrate
  saturation in the aqueous solvent phase of the primary formulation: ~50%
[3]; in PG/PEG-400 (20:10)
  Max Solubility % (w/w): 0.45 % (w/w)
[3]; in PG/PEG-400/GLY (20:10:5)
  Max Solubility % (w/w): 0.66 % (w/w)
[3]; in PG/PEG-400/GLY/(20:10:5:1)
  Max Solubility % (w/w): 0.72 % (w/w)
[3]; in PG/PEG-400/GLY/PVP/Water (20:10:5:1:40)
  Max Solubility % (w/w): 3.3 % (w/w)
[3]; in PG/PEG-400/PVP (20:10:1)
  Max Solubility % (w/w): 0.45 % (w/w)
[4]; glycerine vs propylene glycol
  solubility in glycerine relative to propylene glycol: twice
[4]; in ARLASOLVE DMI, 24 hours at room temperature
  Max Solubility % (w/w): 0.01 % (w/w)
[4]; in GLUCAM E10, peak degradation observed after reinjection T + 72 hours
  Max Solubility % (w/w): 0.72* % (w/w)
[4]; in GLUCAM E20, peak degradation observed after reinjection T + 72 hours
  Max Solubility % (w/w): 0.88* % (w/w)
[4]; in Glycerine (GLY, 20 ml scintillation bottle)
  Max Solubility % (w/w): 1.61 % (w/w)
[4]; in Hexylene Glycol
  Max Solubility % (w/w): 0.01 % (w/w)
[4]; in Na Pyrrolidone Carboxylate (Ajidew L50)
  Max Solubility % (w/w): 0.06 % (w/w)
[4]; in PEG-400
  Max Solubility % (w/w): 0.10 % (w/w)
[4]; in Propylene Carbonate, peak degradation observed after reinjection T + 24 hours
  Max Solubility % (w/w): 0.01** % (w/w)
[4]; in Propylene glycol, measured value
  Max Solubility % (w/w): 0.56 % (w/w)
[4]; in TRANSCUTOL, 24 hours at room temperature
  Max Solubility % (w/w): 0.05 % (w/w)
[4]; in WATER, measured value
  Max Solubility % (w/w): 6.40 % (w/w)
[4]; propylene glycol vs glycerine
  solubility capacity of PG relative to glycerine: 50%

From US20240100045A1, “EMULSION COMPOSITION AND USES THEREOF IN THE PREVENTION AND/OR TREATMENT OF SKIN DAMAGE CAUSED BY RADIATION” (TARIAN PHARMA, priority 2021, published 2024)
